Columns and labels:
VIOTR [1] = assay: Post-emergence herbicidal action against VIOTR; type: in vivo, Viola tricolor; settings: Viola tricolor, 504 h
How it was run: (§1)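 Sandy loam, greenhouse; treatment 2–3 weeks after sowing, one-leaf stage. Aqueous suspension or emulsion from WP/EC sprayed on foliage (600–800 l/ha, 0.2% wetting agent). Readout: visual % action, ~3 weeks.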

VERPE [2] = assay: Pre-emergence herbicidal action against VERPE; type: in vivo, Veronica persica; settings: Veronica persica, 504 h, dosage 80 g/ha
How it was run: (§2)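 Seeds sown in sandy loam, soil-covered; compound sprayed on soil surface pre-emergence. Application: WP/EC, 600–800 l/ha, 0.2% wetting agent. Readout: visual % damage at 3 weeks.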

SETVI [3] = assay: Post-emergence herbicidal action against SETVI; type: in vivo, Setaria viridis; settings: Setaria viridis, 504 h; for pest or weed control at 20 g/ha: dosage 20 g/ha
How it was run: as §1

STEME [4] = assay: Post-emergence herbicidal action against STEME; type: in vivo, Stellaria media; settings: Stellaria media, 504 h; for pest or weed control at 5 g/ha: dosage 5 g/ha
How it was run: as §1

ALOMY [5] = assay: Pre-emergence herbicidal action against ALOMY; type: in vivo, Alopecurus myosuroides; settings: Alopecurus myosuroides, 504 h, pre-emergence; for pest or weed control at 80 g/ha: scored visually after 3 weeks vs untreated controls (100% = plants have died, 0% = like control plants); for pest or weed control at 20 g/ha: scored visually after 3 weeks, 100% = plants have died, 0% = like control plants
How it was run: as §2

HORMU = assay: Pre-emergence herbicidal action against HORMU; type: in vivo, Hordeum murinum; settings: Hordeum murinum, 504 h; 80 g/ha, pre-emergence
Description: Seeds of monocotyledonous and dicotyledonous weed plants and crop plants are laid out in sandy loam soil in wood-fiber pots and covered with soil. The compounds of the invention, formulated in the form of wettable powders (WP) or as emulsion concentrates (EC), are then applied to the surface of the covering soil in the form of an aqueous suspension or emulsion at a water application rate equivalent to 600 to 800 l/ha, with addition of 0.2% wetting agent. After the treatment, the pots are placed in a greenhouse and kept under good growth conditions for the trial plants. The damage to the test plants is scored visually after a test period of 3 weeks by comparison with untreated controls (herbicidal activity in percent (%): 100% activity=the plants have died, 0% activity=like control plants). […] The tables below illustrate, in an illustrative manner, the post-emergence herbicidal action of the compounds of the invention, the herbicidal activity being stated in percent.

SETVI [6] = assay: Pre-emergence herbicidal action against SETVI; type: in vivo, Setaria viridis; settings: Setaria viridis, 504 h; for pest or weed control at 20 g/ha: dosage 20 g/ha; for pest or weed control at 80 g/ha: dosage 80 g/ha
How it was run: as §2

AVEFA [7] = assay: Pre-emergence herbicidal action against AVEFA; type: in vivo, Avena fatua; settings: Avena fatua, 504 h, pre-emergence
How it was run: as §2

STEME [8] = assay: Pre-emergence herbicidal action against STEME; type: in vivo, Stellaria media; settings: Stellaria media, 504 h; for pest or weed control at 20 g/ha: dosage 20 g/ha; for pest or weed control at 80 g/ha: dosage 80 g/ha
How it was run: as §2

PHBPU = assay: Post-emergence herbicidal action against PHBPU; type: in vivo, Pharbitis purpurea; settings: Ipomoea purpurea, 504 h; for pest or weed control at 5 g/ha: dosage 5 g/ha; for pest or weed control at 20 g/ha: dosage 20 g/ha
How it was run: as §1

AMARE [9] = assay: Post-emergence herbicidal action against AMARE; type: in vivo, Amaranthus retroflexus; settings: Amaranthus retroflexus, 504 h, 20 g/ha, visual assessment about 3 weeks after treatment, 100% = plants have died, 0% = like control plants
How it was run: as §1

ALOMY [10] = assay: Post-emergence herbicidal action against ALOMY; type: in vivo, Alopecurus myosuroides; settings: Alopecurus myosuroides, 504 h, dosage 20 g/ha, visual assessment about 3 weeks after treatment vs untreated controls
How it was run: as §1

ECHCG [11] = assay: Pre-emergence herbicidal action against ECHCG; type: in vivo, Echinochloa crus-galli; settings: Echinochloa crus-galli, 504 h
How it was run: as §2

VIOTR [12] = assay: Pre-emergence herbicidal action against VIOTR; type: in vivo, Viola tricolor; settings: Viola tricolor, 504 h; for pest or weed control at 20 g/ha: dosage 20 g/ha; for pest or weed control at 80 g/ha: dosage 80 g/ha
How it was run: as §2

DIGSA [13] = assay: Post-emergence herbicidal action against DIGSA; type: in vivo, Digitaria sanguinalis; settings: Digitaria sanguinalis, 504 h
How it was run: as §1

DIGSA [14] = assay: Pre-emergence herbicidal action against DIGSA; type: in vivo, Digitaria sanguinalis; settings: Digitaria sanguinalis, 504 h; for pest or weed control at 20 g/ha: dosage 20 g/ha; for pest or weed control at 80 g/ha: dosage 80 g/ha
How it was run: as §2

AVEFA [15] = assay: Post-emergence herbicidal action against AVEFA; type: in vivo, Avena fatua; settings: Avena fatua, 504 h, visual assessment about 3 weeks after treatment, 100% = plants have died, 0% = like control plants
How it was run: as §1

MATIN [16] = assay: Pre-emergence herbicidal action against MATIN; type: in vivo, Matricaria inodora; settings: Tripleurospermum inodorum, 504 h; for pest or weed control at 20 g/ha: dosage 20 g/ha; for pest or weed control at 80 g/ha: dosage 80 g/ha
How it was run: as §2

ECHCG [17] = assay: Post-emergence herbicidal action against ECHCG; type: in vivo, Echinochloa crus-galli; settings: Echinochloa crus-galli, 504 h; for pest or weed control at 20 g/ha: dosage 20 g/ha
How it was run: as §1

LOLRI = assay: Pre-emergence herbicidal action against LOLRI; type: in vivo, Lolium rigidum; settings: Lolium rigidum, 504 h, 80 g/ha
How it was run: as §2

ABUTH [18] = assay: Pre-emergence herbicidal action against ABUTH; type: in vivo, Abutilon theophrasti; settings: Abutilon theophrasti, 504 h; for pest or weed control at 80 g/ha: scored visually after 3 weeks vs untreated controls (100% = plants have died, 0% = like control plants); for pest or weed control at 20 g/ha: dosage 20 g/ha, scored visually after 3 weeks vs untreated controls, 100% = plants have died, 0% = like control plants, read-out: Pre-emergence action against ABUTH (herbicidal activity in percent)
How it was run: as §2

MATIN [19] = assay: Post-emergence herbicidal action against MATIN; type: in vivo, Matricaria inodora; settings: Tripleurospermum inodorum, 504 h, dosage 20 g/ha
How it was run: as §1

ABUTH [20] = assay: Post-emergence herbicidal action against ABUTH; type: in vivo, Abutilon theophrasti; settings: Abutilon theophrasti, 504 h, visual assessment about 3 weeks after treatment vs untreated controls; for pest or weed control at 5 g/ha: dosage 5 g/ha; for pest or weed control at 20 g/ha: dosage 20 g/ha
How it was run: as §1

AMARE [21] = assay: Pre-emergence herbicidal action against AMARE; type: in vivo, Amaranthus retroflexus; settings: Amaranthus retroflexus, 504 h, scored visually after 3 weeks vs untreated controls, 100% = plants have died, 0% = like control plants
How it was run: as §2

POLCO = assay: Pre-emergence herbicidal action against POLCO; type: in vivo, Polygonum convolvulus; settings: Fallopia convolvulus, 504 h, dosage 80 g/ha
How it was run: as §2

VERPE [22] = assay: Post-emergence herbicidal action against VERPE; type: in vivo, Veronica persica; settings: Veronica persica, 504 h, 20 g/ha
How it was run: as §1

CCNC(=O)c1c(C(F)(F)F)ccc(C(=O)Nc2nnnn2C)c1Cl [Example 1-130]
90%: pest or weed control at 5 g/ha (VIOTR [1]) | pest or weed control at 20 g/ha (VIOTR [1]) | pest or weed control at 80 g/ha (HORMU) | pest or weed control at 20 g/ha (SETVI [6]) | pest or weed control at 20 g/ha (PHBPU) | pest or weed control at 20 g/ha (AMARE [9]) | pest or weed control at 20 g/ha (ECHCG [11]; 20 g/ha) | pest or weed control at 5 g/ha (DIGSA [13]) | pest or weed control at 20 g/ha (DIGSA [13]) | pest or weed control at 5 g/ha (ABUTH [20]) | pest or weed control at 20 g/ha (ABUTH [20])
80%: pest or weed control at 80 g/ha (VERPE [2]) | pest or weed control at 20 g/ha (SETVI [3]) | pest or weed control at 20 g/ha (STEME [4]) | pest or weed control at 5 g/ha (STEME [4]) | pest or weed control at 5 g/ha (PHBPU) | pest or weed control at 20 g/ha (ALOMY [10]) | pest or weed control at 20 g/ha (AVEFA [15]) | pest or weed control at 5 g/ha (ECHCG [17]; dosage 5 g/ha) | pest or weed control at 20 g/ha (ECHCG [17]) | pest or weed control at 20 g/ha (MATIN [19])
100%: pest or weed control at 80 g/ha (ALOMY [5]) | pest or weed control at 20 g/ha (ALOMY [5]) | pest or weed control at 80 g/ha (SETVI [6]) | pest or weed control at 80 g/ha (AVEFA [7]) | pest or weed control at 20 g/ha (AVEFA [7]; 20 g/ha, scored visually after 3 weeks, 100% = plants have died, 0% = like control plants) | pest or weed control at 20 g/ha (STEME [8]) | pest or weed control at 80 g/ha (STEME [8]) | pest or weed control at 80 g/ha (ECHCG [11]) | pest or weed control at 20 g/ha (VIOTR [12]) | pest or weed control at 80 g/ha (VIOTR [12]) | pest or weed control at 20 g/ha (DIGSA [14]) | pest or weed control at 80 g/ha (DIGSA [14]) | pest or weed control at 20 g/ha (MATIN [16]) | pest or weed control at 80 g/ha (MATIN [16]) | pest or weed control at 80 g/ha (LOLRI) | pest or weed control at 80 g/ha (ABUTH [18]) | pest or weed control at 20 g/ha (ABUTH [18]) | pest or weed control at 20 g/ha (AMARE [21]) | pest or weed control at 80 g/ha (AMARE [21])

CCNC(=O)c1c(C(F)(F)F)ccc(C(=O)Nc2nnnn2CC)c1Br [Example 2-208]
80%: pest or weed control at 5 g/ha (SETVI [3]; dosage 5 g/ha) | pest or weed control at 20 g/ha (SETVI [3]) | pest or weed control at 5 g/ha (STEME [4]) | pest or weed control at 20 g/ha (ALOMY [5]) | pest or weed control at 20 g/ha (SETVI [6]) | pest or weed control at 5 g/ha (PHBPU) | pest or weed control at 20 g/ha (PHBPU) | pest or weed control at 20 g/ha (ALOMY [10]) | pest or weed control at 20 g/ha (VERPE [22]) | pest or weed control at 5 g/ha (DIGSA [13]) | pest or weed control at 5 g/ha (AVEFA [15]; 5 g/ha) | pest or weed control at 20 g/ha (ECHCG [17]) | pest or weed control at 80 g/ha (LOLRI) | pest or weed control at 20 g/ha (MATIN [19])
90%: pest or weed control at 80 g/ha (ALOMY [5]) | pest or weed control at 80 g/ha (HORMU) | pest or weed control at 80 g/ha (POLCO) | pest or weed control at 20 g/ha (DIGSA [13]) | pest or weed control at 20 g/ha (DIGSA [14]) | pest or weed control at 20 g/ha (AVEFA [15]) | pest or weed control at 5 g/ha (ABUTH [20]) | pest or weed control at 20 g/ha (ABUTH [20])
100%: pest or weed control at 5 g/ha (VIOTR [1]) | pest or weed control at 20 g/ha (VIOTR [1]) | pest or weed control at 20 g/ha (STEME [4]) | pest or weed control at 80 g/ha (SETVI [6]) | pest or weed control at 80 g/ha (AVEFA [7]) | pest or weed control at 20 g/ha (STEME [8]) | pest or weed control at 80 g/ha (STEME [8]) | pest or weed control at 20 g/ha (AMARE [9]) | pest or weed control at 80 g/ha (ECHCG [11]) | pest or weed control at 20 g/ha (VIOTR [12]) | pest or weed control at 80 g/ha (VIOTR [12]) | pest or weed control at 80 g/ha (DIGSA [14]) | pest or weed control at 20 g/ha (MATIN [16]) | pest or weed control at 80 g/ha (MATIN [16]) | pest or weed control at 80 g/ha (ABUTH [18]) | pest or weed control at 20 g/ha (ABUTH [18]) | pest or weed control at 20 g/ha (AMARE [21]) | pest or weed control at 80 g/ha (AMARE [21])

Reference: patent US12655116B2, “Substituted isophthalic acid diamides” (Bayer Aktiengesellschaft, priority 2020, dated 2026)
